Laboratory results reported in publication PMC4092041 (Journal of cardiovascular pharmacology, 2014).
Each block holds one compound with its values, some of them ahead of it.

Assays:
[1] = Stability of EpFAs at 37°C, neutral pH; format: physicochemical
[2] = test system: P450 metabolites of the ARA cascade / sEH; test: Oxylipin profiling: P450 and sEH metabolites; details: for Increase in plasma levels of the infused EpFA vs Ang II infused animals: subcutaneous infusion, corresponding groups
COX pathway = details: kidney; P < 0.05
sEH = details: cited from earlier work
LOX pathway = test: Oxylipin profiling: LOX metabolites; format: in vivo, mice; details: kidney; TPPU 0.2 mg/kg
Body weight gain = format: in vivo; details: Ang II infused mice
[3] = test system: angiotensin-II dependent hypertension; details: TPPU 0.2 and 0.6 mg/kg; cited from earlier work
[4] = test system: angiotensin-II dependent hypertension; test: Systolic blood pressure; format: in vivo, mice; details: overall mixed effects analysis, all days; TPPU alone 0.2 mg/kg in drinking water; P < 0.05
[5] = cited from earlier work

- Stability [1]: quite stable
- Increase in plasma levels of the infused EpFA vs Ang II infused animals ([2]; P < 0.05): approximately 2 fold
SMILES: CCCCCC1OC1C/C=C\C/C=C\C/C=C\CCCC(=O)O (stereo not shown) [14, 15-EET, epoxyeicosatrienoic acid]

SMILES: CCC1OC1C/C=C\C/C=C\C/C=C\C/C=C\C/C=C\CCC(=O)O (stereo not shown) [19, 20-EDP, epoxydocosapentaenoic acid]
- Stability [1]: quite stable
- Tissue levels of PGE2 vs Ang II infusion alone (COX pathway): significantly decreased by half
- Tissue levels of 19, 20-EDP relative to tissue levels of 14, 15-EET ([2]; animals receiving these EpFAs): 6 times
- Renal levels of 14, 15-EET vs Ang II infused animals ([2]; kidney, TPPU 0.2 mg/kg): significantly decreased
- Increase in plasma levels of the infused EpFA vs Ang II infused animals ([2]; P < 0.05): approximately 2 fold
- Rate of metabolism by sEH compared to most other fatty acid epoxides tested (sEH): more slowly metabolized

SMILES: CCC(=O)N1CCC(NC(=O)Nc2ccc(OC(F)(F)F)cc2)CC1 [TPPU]
- Tissue levels of 15(S)-HETrE vs 19, 20-EDP treatment alone (LOX pathway): increased
- Tissue levels of 15-HETE vs 19, 20-EDP treatment alone (LOX pathway): increased
- Body weight gain (Body weight gain): did not alter body weight gain
- Renal PGD2 vs Ang II infusion and 19, 20-EDP alone (COX pathway): decreased
- Increase in renal DiHOMEs vs 19, 20-EDP alone or Ang II infusion ([2]; TPPU 0.2 mg/kg, P < 0.05): approximately 3 fold
- Renal levels of 19, 20-EDP vs Ang II alone or 19, 20-EDP treated animals ([2]; kidney, TPPU 0.2 mg/kg): significantly increased
- Summed plasma concentration of DiHDPEs vs 19, 20-EDP treatment alone ([2]; plasma, TPPU 0.2 mg/kg): decreased significantly
- Blood pressure in Ang II hypertension [3]: lower blood pressure to near baseline levels
- SBP (percent change from baseline) vs Ang II infused controls [4]: statistically lower SBP

SMILES: CCCCc1nc(Cl)c(CO)n1Cc1ccc(-c2ccccc2-c2nn[nH]n2)cc1 [losartan]
- Adverse effect on monovalent cation balance [5]: hyperkalemia
- BP in normotensive animals [5]: reduced BP
